*1 amine or outer side, *2 acyl side, *3 side chain or, on linkers, in order; H or OH if unused. Where a SMILES comes first, the peptide text is derived from it. Where no end group is shown, it is not given here. Side-chain parts run from the residue outwards. [ ]: non-standard residue; d: D form. The star is where a group is joined. NMeF = CN[C@@H](Cc1ccccc1)C(=O)O; NH(2-Me-phenyl) = Cc1ccccc1N*; Boc = CC(C)(C)OC(=O)*; CO = O=C([*:1])[*:2]; Ahx = NCCCCCC(=O)O
Experiments:
GPR173 [1] = biological target: T1, GPR173 (Homo sapiens, UniProt Q9NS66); assay: Antagonism of CCK1R/2R antagonists to GPR173; type: cell-based
Experimental: (§1) All measurements of calcium imaging are performed by EnVision 2104 Multilabel Reader (Perkin Elmer, Waltham, Massachusetts, US, https://www.perkinelmer.com, excitation: 485 nm and emission: 535 nm). […] Cells are cultured at 37° C., 5% CO2 in DMEM/F-12 medium (Thermo Fisher, Waltham, MA, US, https://www.thermofisher.cn) containing 10% FBS (Natocor-Industria Biológica) and washed with DMEM/F-12 medium once after overnight incubation.

GPR173 [2] = biological target: T1, GPR173; assay: Calcium imaging assay in CHO-GPR173 cell line; type: cell-based; settings: for calcium signal in CHO-GPR173 cells: after incubation with the peptide
Experimental: as §1

Flag-GPR173 = biological target: T2, Flag-GPR173 (Homo sapiens, UniProt Q9NS66); assay: Cell surface binding assay, HEK293T cells transfected with Flag-GPR173; settings: CCK-binding assay, FIG. 4B
T2 construct: host or cells: HEK293T
Experimental: HEK293T cells are transfected with pCDNA3.1(+)-Flag-GPCR (purchased from Public Protein/Plasmid Library, Nanjing, China, http://ppl.biogot.com; or home-made by us based on pCDNA3.1(+) backbone). The cells are incubated with HA-ε-Ahx-ε-Ahx or HA-(ε-Ahx)2-CCK8s dissolved in HHBS solution (Hank's solution including 20 mM N-2-hydroxyethylpiperazine-N′-2-ethanesulfonic acid (HEPES), pH=7.4) for 30 min at room temperature, 48 h after transfection by Lipo6000 (Beyotime Biotechnology, Shanghai, China, https://www.beyotime.com/). After three washes with HHBS, cells are fixed in 4% paraformaldehyde and 4% sucrose in PBS for 15 min at room temperature. Cells are blocked in 5% normal goat serum in PBS, and staining is performed in detergent-free conditions without cell permeabilization after three washes by PBS. Primary antibody rabbit anti-HA (CST, 3724 Boston, US, https://www.cellsignal.com), anti-GPR173 (PA5-50976, ThermoFisher, Waltham, MA, US, https://www.thermofisher.cn) and mouse anti-Flag (CST-8146, Boston, US, https://www.cellsignal.com) are used to detect HA and Flag tags. For binding assay of pCDNA3.1(+)-AcGFP-CCK1R, only rabbit anti-HAprimary antibody is used to detectHAtag. Images are captured on a Leica SP8 confocal microscope (Leica Microsystems, Danaher Corporation, US, https://www.leica-microsystems.com/). […]

[3] = system: pyramidal neurons (CCK-GABA synapses) in the AC; assay: In vitro patch-clamp recording of laser-evoked IPSC in pyramidal neurons of auditory cortex brain slices; type: cell-based, CCK-Cre mice
Experimental: In the experiments of FIGS. 2-3, a protective cutting and recovery method is adopted in preparing acute brain slices of CCK-Cre, PV-Cre, CCK-KO, and CCK1R/2R-KO mice to achieve a higher success rate for patch-clamp, as previously described in Chen, X., et al., Natl. Acad. Sci., Vol. 116, pp. 2019. Briefly, the anaesthetized mice are perfused transcardially with NMDG-aCSF (92 mM NMDG, 2.5 mM KCl, 1.25 mM NaH2PO4, 30 mM NaHCO3, 20 mM HEPES, 25 mM glucose, 2 mM thiourea, 5 mM Na-ascorbate, 3 mM Na-pyruvate, 0.5 mM CaCl2·4H2O, and 10 mM MgSO4·7H2O; pH 7.3-7.4), and the brain is extracted and cut into 300 μm-thick sections. The slices are transferred to NMDG-aCSF for 10 min at 32-34° C. to allow protective recovery and then to room-temperature HEPES-aCSF (92 mM NaCl, 2.5 mM KCl, 1.25 mM NaH2PO4, 30 mM NaHCO3, 20 mM HEPES, 25 mM glucose, 2 mM thiourea, 5 mM Na-ascorbate, 3 mM Na-pyruvate, 2 mM CaCl2·4H2O, and 2 mM MgSO4·7H2O; pH 7.3-7.4) for at least 1 h before recording.
Whole-cell recordings (with Multiclamp 700B amplifier and Digital 1440A digitizer, Molecular Devices, www.moleculardevices.com, Menlo Park, California, USA), targeting the AC of the brain slices in room-temperature aCSF (119 mM NaCl, 2.5 mM KCl, 1.25 mM NaH2PO4, 24 mM NaHCO3, 12.5 mM glucose, 2 mM CaCl2·4H2O and 2 mM MgSO4·7H2O, ˜25° C.) are performed. Patch pipettes are pulled with resistance between 3-5 MQ from borosilicate glass (WPI, World Precision Instruments; UK; httpss://www.wpiinc.com/) on a Sutter-87 puller (Sutter Instrument; CA, US, https://www.sutter.com/). The intracellular solution contains: 145 mM K-Gluconate, 10 mM HEPES, 1 mM EGTA, 2 mM Mg-ATP, 0.3 mM Na2-GTP, and 2 mM MgCl2; pH 7.3; 290-300 mOsm. Similarly, after Giga-Ohm seal formation, recordings are made and then terminated if Rs changes more than 20%. Pyramidal neurons are selected based on the pyramidal-like shape and the firing pattern of regular spiking by injecting step currents.
Laser stimulation is applied through an optical fiber placed ˜200 μm from the recording neuron using Aurora-220 (473 nm, NEWDOON, Changchun, China; http://www.newdoon.com/) to activate ChR2^+ neurons (GABAergic). In the examples, only neurons that respond to the laser pulse is recruited. HFLS (10-pulse burst at 40 Hz, repeated for 10 trials) or Low-frequency Laser Stimulation (LFLS, 1 Hz, 100 pulses) with a 15-s interval is delivered. Inhibitory postsynaptic currents (IPSCs) to the laser stimulation (1 pulse per 15 s, 5 ms in duration) under voltage-clamp recording mode (holding at −60 mV to −50 mV) are recorded for 5 min as the baseline before and for 25 min after the HFLS or LFLS.
For the normalization of recorded IPSC in the CCK-Cre, PV-Cre, CCK-KO, and CCK1R/2R-KO mice, only the patched neurons are recruited when the IPSC is greater than 35 pA.

[4] = biological target: T3, Flag-HTR1B on transfected HEK293T cells (UniProt P28222 1-390); assay: cell surface binding assay on HEK293T cells transfected with Flag-tagged GPCRs, anti-HA and anti-Flag staining, confocal
T3 construct: whole, on cells
T3 sequence (P28222 whole entry): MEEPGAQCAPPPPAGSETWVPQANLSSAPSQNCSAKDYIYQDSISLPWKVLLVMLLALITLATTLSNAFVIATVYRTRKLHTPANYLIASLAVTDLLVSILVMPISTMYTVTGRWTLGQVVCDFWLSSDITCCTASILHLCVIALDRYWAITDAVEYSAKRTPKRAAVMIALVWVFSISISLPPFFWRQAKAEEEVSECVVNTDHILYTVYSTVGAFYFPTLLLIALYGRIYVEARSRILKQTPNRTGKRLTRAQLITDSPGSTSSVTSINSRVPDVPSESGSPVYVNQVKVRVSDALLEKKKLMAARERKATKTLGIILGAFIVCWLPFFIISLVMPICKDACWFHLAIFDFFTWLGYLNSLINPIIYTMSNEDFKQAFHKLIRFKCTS
Experimental: HEK293T cells are transfected with pCDNA3.1(+)-Flag-GPCR (purchased from Public Protein/Plasmid Library, Nanjing, China, http://ppl.biogot.com; or home-made by us based on pCDNA3.1(+) backbone). […] After three washes with HHBS, cells are fixed in 4% paraformaldehyde and 4% sucrose in PBS for 15 min at room temperature. Cells are blocked in 5% normal goat serum in PBS, and staining is performed in detergent-free conditions without cell permeabilization after three washes by PBS. […] For binding assay of pCDNA3.1(+)-AcGFP-CCK1R, only rabbit anti-HAprimary antibody is used to detectHAtag. Images are captured on a Leica SP8 confocal microscope (Leica Microsystems, Danaher Corporation, US, https://www.leica-microsystems.com/). Images within each experiment are collected using identical laser-power, offset, and gain.

T1 sequence (Q9NS66 whole entry, species assumed): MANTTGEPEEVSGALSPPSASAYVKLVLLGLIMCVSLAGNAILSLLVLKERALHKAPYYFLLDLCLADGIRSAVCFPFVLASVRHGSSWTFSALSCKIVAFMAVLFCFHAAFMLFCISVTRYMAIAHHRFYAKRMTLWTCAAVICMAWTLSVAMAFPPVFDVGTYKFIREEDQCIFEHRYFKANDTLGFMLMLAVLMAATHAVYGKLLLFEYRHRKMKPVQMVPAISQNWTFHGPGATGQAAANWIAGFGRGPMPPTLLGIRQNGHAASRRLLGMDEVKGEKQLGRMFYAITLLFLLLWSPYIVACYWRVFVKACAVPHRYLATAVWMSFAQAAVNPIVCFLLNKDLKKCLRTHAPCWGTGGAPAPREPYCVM
T2 sequence (Q9NS66 whole entry): as the sequence (Q9NS66 whole entry, species assumed) above

| IC50 (GPR173 [1]) | calcium signal in CHO-GPR173 cells (GPR173 [2]) | Molecule | also measured |
| --- | --- | --- | --- |
| 3100 nM | – | CNc1cccc(NC(=O)N[C@@H]2N=C(c3ccccn3)c3ccccc3N(CC(=O)C(C)(C)C)C2=O)c1 [YF476] | – |
| 715 ± 99.4 nM | – | CCCCCN(CCCOC)C(=O)C(CCC(=O)O)NC(=O)c1ccc(Cl)c(Cl)c1 (centres unmarked) [Loxiglumide] | – |
| – | no calcium signal | Phoenixin (DVQPPGLKVWSDPF) [PNX, Phoenixin, peptide claimed in the literature to act through GPR173] | – |
| 12.3 ± 3.41 nM | – | CN1C(=O)[C@@H](NC(=O)c2cc3ccccc3[nH]2)N=C(c2ccccc2)c2ccccc21 [Devazepide] | blockade of HFLS-induced iLTP ([3]; Devazepide 60 nM in bath solution): entirely blocks the iLTP; normalized IPSC 20-25 min after Devazepide infusion and the HFLS ([3]; Devazepide 60 nM in bath solution, baseline 100.18±1.91, HFLS alone 183.70±6.25%, n=8): 103.24±2.54% |
| – | evokes no response | CCK4: CCK2R-selective agonist | – |
| – | – | Cc1ccccc1NC(=O)NCCCC[C@H](NC(=O)[C@H](Cc1c[nH]c2ccccc12)NC(=O)OC(C)(C)C)C(=O)N[C@@H](CC(=O)O)C(=O)N(C)[C@@H](Cc1ccccc1)C(N)=O [A-71623] (Boc-WK([CO-NH(2-Me-phenyl)])D[NMeF]-NH2) | activation of the CHO-GPR173 cell line (GPR173 [2]; even at 100 μM): does not activate |
| – | – | {HA tag-Ahx-Ahx}-DYMGWMDF (peptide, UniProt P06307 96-103, looked up, not shown: small tags and cut ends, ends and bridges not checked; also: sulphated CCK8, site not given here, Chemically synthesised; also called HA-(ε-Ahx)2-CCK8s; HA-labeled CCK8s) [HA2A8s (HA-ε-Ahx-ε-Ahx-CCK8s)] | binding result [4]: no binding |

| Molecule | IC50 (GPR173 [1]) | calcium signal in CHO-GPR173 cells (GPR173 [2]) | also measured |
| --- | --- | --- | --- |
| CCK8s | – | strong calcium response | binding affinity of Flag-GPR173 with CCK8s (Flag-GPR173): prominent binding affinity; normalized IPSC amplitude 25-30 min after CCK8s+1 Hz ([3]; 200-nM CCK8s bath application 3 min before LFLS (1 Hz, 100 pulses), baseline 100.00±2.53, n=8 neurons): 161.84±4.38%; iLTP after CCK8s followed by LFLS ([3]; CCK8s+1 Hz group vs aCSF+1 Hz): large iLTP |
| Cc1cccc(NC(=O)N[C@@H]2N=C(c3ccccc3)c3ccccc3N(C)C2=O)c1 [L365,260] | 16800 nM | – | – |
